pIC50: −log10 of the molar value. ≈ marks a conversion by molar mass, not a printed value.
What was measured:
[1] = Cytotoxicity against mouse J774.G8 cells after 48 hrs by MTT assay; assay type: functional, cell-based; settings: J774.G8, 48 h
[2] = test system: Mycobacterium tuberculosis; test: Antituberculosis activity against Mycobacterium tuberculosis H37Rv by microplate alamar blue assay; assay type: functional
Vero = test: cells; settings: Chlorocebus sabaeus, 48 h
Description: Cytotoxicity against african green monkey Vero cells after 48 hrs by MTT assay

[3] = test system: Mycobacterium tuberculosis; test: Antituberculosis activity against Mycobacterium tuberculosis H37Rv in mouse J774A.1 cells assessed as reduction in intracellular bacterial burden at 0.5 ug/ml measured after 21 days by agar plate method; assay type: functional, J774.A1; design: scale not given: the % may be the effect or the level left; settings: dose 0.5 µg/ml; time 21 day
[4] = Metabolic stability in mouse liver microsomes assessed as intrinsic clearance per mg protein preincubated for 5 mins followed by NADPH addition and measured upto 30 mins by LC-MS/MS assay; assay type: ADME, Microsome; settings: time < 35 min, read-out: CLH
[5] = Metabolic stability in mouse liver microsomes assessed as half life preincubated for 5 mins followed by NADPH addition and measured upto 30 mins by LC-MS/MS assay; assay type: ADME, Microsome; settings: time < 35 min
[6] = Metabolic stability in human liver microsomes assessed as substrate remaining preincubated for 5 mins followed by NADPH addition and measured upto 30 mins by LC-MS/MS assay; assay type: ADME, Microsome; settings: time < 35 min, read-out: Stability
[7] = target: T1, Low molecular weight protein-tyrosine phosphatase A (Mycobacterium tuberculosis) (UniProt P9WIA1); test: Inhibition of Mycobacterium tuberculosis H37Rv ptpA expressed in Escherichia coli BL21(DE3) at 10 uM using pNPP as substrate preincubated for 10 mins followed by substrate addition and measured for 5 mins by spectrophotometer analysis relative to control; settings: time 15.0 min
T1 sequence (whole entry): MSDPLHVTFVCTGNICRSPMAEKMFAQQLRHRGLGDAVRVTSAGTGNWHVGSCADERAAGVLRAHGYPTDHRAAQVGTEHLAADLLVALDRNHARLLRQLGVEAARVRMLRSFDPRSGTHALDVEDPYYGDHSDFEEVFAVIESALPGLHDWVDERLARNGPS

[8] = test system: PTP1B versus M. tuberculosis ptpB; test: Selectivity index, ratio of IC50 for human PTP1B to Mycobacterium tuberculosis H37Rv ptpB; assay type: toxicity; settings: read-out: Ratio IC50
[9] = Metabolic stability in human liver microsomes assessed as half life preincubated for 5 mins followed by NADPH addition and measured upto 30 mins by LC-MS/MS assay; assay type: ADME, Microsome; settings: time < 35 min
[10] = target: T2, Tyrosine-protein phosphatase non-receptor type 1 (Homo sapiens, UniProt P18031); test: Inhibition of recombinant human PTP1B using pNPP as substrate preincubated for 5 mins followed by substrate addition and measured for 10 mins; assay type: toxicity
T2 sequence (P18031 whole entry): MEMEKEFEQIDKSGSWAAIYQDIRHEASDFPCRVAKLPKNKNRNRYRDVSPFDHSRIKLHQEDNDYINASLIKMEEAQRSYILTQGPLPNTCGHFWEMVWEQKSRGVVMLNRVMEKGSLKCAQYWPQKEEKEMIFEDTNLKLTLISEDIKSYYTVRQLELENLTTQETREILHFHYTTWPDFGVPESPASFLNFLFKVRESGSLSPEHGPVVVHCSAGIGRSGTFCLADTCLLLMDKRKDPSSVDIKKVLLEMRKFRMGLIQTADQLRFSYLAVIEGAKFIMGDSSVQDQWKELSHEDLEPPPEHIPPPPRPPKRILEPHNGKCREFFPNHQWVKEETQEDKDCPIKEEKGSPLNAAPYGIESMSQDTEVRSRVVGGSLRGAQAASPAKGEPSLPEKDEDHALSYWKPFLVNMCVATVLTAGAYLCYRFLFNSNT

[11] = Metabolic stability in human liver microsomes in absence of NADPH by LC-MS/MS assay; assay type: ADME, Microsome
[12] = target: T3, Triple specificity protein phosphatase PtpB (Mycobacterium tuberculosis (strain ATCC 25618 / H37Rv), UniProt I6WXK4); test: Inhibition of Mycobacterium tuberculosis H37Rv ptpB expressed in Escherichia coli BL21(DE3) using pNPP as substrate preincubated for 10 mins followed by substrate addition and measured for 5 mins by spectrophotometer analysis
T3 sequence (I6WXK4 whole entry): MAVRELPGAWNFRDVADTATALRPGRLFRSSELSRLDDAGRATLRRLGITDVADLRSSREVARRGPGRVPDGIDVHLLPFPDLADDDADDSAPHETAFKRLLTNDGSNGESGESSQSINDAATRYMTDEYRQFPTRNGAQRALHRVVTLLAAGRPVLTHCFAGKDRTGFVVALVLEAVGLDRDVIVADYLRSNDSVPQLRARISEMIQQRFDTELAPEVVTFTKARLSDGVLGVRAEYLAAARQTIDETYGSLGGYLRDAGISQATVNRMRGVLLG

[13] = Metabolic stability in mouse liver microsomes in absence of NADPH by LC-MS/MS assay; assay type: ADME, Microsome
[14] = target: T4, Triple specificity protein phosphatase PtpB (Mycobacterium tuberculosis (strain ATCC 25618 / H37Rv)) (UniProt I6WXK4); test: (§1) Inhibition of Mycobacterium tuberculosis H37Rv ptpB expressed in Escherichia coli BL21(DE3) at 50 uM using pNPP as substrate preincubated for 10 mins followed by substrate addition and measured for 5 mins by spectrophotometer analysis relative to control; settings: time 15.0 min
T4 sequence (whole entry): T3 sequence (I6WXK4 whole entry)

[15] = Metabolic stability in mouse liver microsomes assessed as substrate remaining preincubated for 5 mins followed by NADPH addition and measured upto 30 mins by LC-MS/MS assay; assay type: ADME, Microsome; settings: time < 35 min, read-out: Stability
[16] = test system: Mycobacterium tuberculosis; test: Antituberculosis activity against Mycobacterium tuberculosis H37Rv in mouse J774A.1 cells assessed as reduction in intracellular bacterial burden measured after 21 days by agar plate method; assay type: functional, organism-based; settings: J774.A1, dose 1-10 µg/ml, time 21.0 day
[17] = Metabolic stability in human liver microsomes assessed as intrinsic clearance per mg protein preincubated for 5 mins followed by NADPH addition and measured upto 30 mins by LC-MS/MS assay; assay type: ADME, Microsome; settings: time < 35 min, read-out: CLH
[18] = Permeability in human Caco-2 cells at 3 uM incubated for 90 mins by LC-MS/MS analysis; assay type: ADME, cell-based; settings: read-out: permeability
[19] = target: T5, Low molecular weight protein-tyrosine phosphatase A (Mycobacterium tuberculosis, UniProt P9WIA1); test: Inhibition of Mycobacterium tuberculosis H37Rv ptpA expressed in Escherichia coli BL21(DE3) using pNPP as substrate preincubated for 10 mins followed by substrate addition and measured for 5 mins by spectrophotometer analysis
T5 sequence (P9WIA1 whole entry): T1 sequence (whole entry)

[20] = test system: Mycobacterium tuberculosis; test: Antituberculosis activity against Mycobacterium tuberculosis H37Rv in mouse J774A.1 cells assessed as reduction in bacterial burden at 10 ug/ml measured after 21 days in presence of RFP by agar plate method; assay type: functional, J774.A1; design: scale not given: the % may be the effect or the level left; settings: dose 10 µg/ml; time 21 day
[21] = test system: Mycobacterium tuberculosis; test: Antituberculosis activity against Mycobacterium tuberculosis H37Rv in mouse J774A.1 cells assessed as reduction in intracellular bacterial burden at 10 ug/ml measured after 21 days by agar plate method; assay type: functional, J774.A1; design: scale not given: the % may be the effect or the level left; settings: dose 10 µg/ml; time 21 day
[22] = target: Triple specificity protein phosphatase PtpB (Mycobacterium tuberculosis (strain ATCC 25618 / H37Rv)) (UniProt I6WXK4); test: as §1; settings: time 15.0 min; remark: listed apart in the source
[23] = target: T6, Phosphotyrosine protein phosphatase (Mycobacterium tuberculosis, UniProt A0A045ISB3); test: Inhibition of Mycobacterium tuberculosis ptpB
T6 sequence (A0A045ISB3 whole entry): T3 sequence (I6WXK4 whole entry)

[24] = target: T3, Triple specificity protein phosphatase PtpB; test: Inhibition of Mycobacterium tuberculosis H37Rv ptpB using pNPP as substrate preincubated for 10 mins followed by substrate addition and measured for 5 mins by spectrophotometer analysis

Row | Molecule | IC50 [1] [µg/mL] | MIC [2] [µg/mL] | IC50 (Vero) [µg/mL] | microsomal CLint [4] [µL/min/mg] | half-life [5] [h] | remaining at 0.5 h [6] [%] | selectivity ratio [8] | half-life [9] [h] | pIC50 [10] | Stability [11] | pIC50 [12] | Stability [13] | inhibition [14] [%] | remaining at 0.5 h [15] [%] | Activity [16] | microsomal CLint [17] [µL/min/mg] | further results
1 | CO[C@H]1/C=C/O[C@@]2(C)Oc3c(C)c(O)c4c(O)c(c(/C=N/N5CCN(C)CC5)c(O)c4c3C2=O)NC(=O)/C(C)=C\C=C\[C@H](C)[C@H](O)[C@@H](C)[C@@H](O)[C@@H](C)[C@H](OC(C)=O)[C@@H]1C [RIFAMPIN] | > 64 | 0.023 (≈ 0.0279 µM) | > 64 | – | – | – | – | – | – | – | – | – | – | – | – | – | Activity [3]: >85%
2 | O=C(O)[C@H](C1CCCCC1)N1C(=O)/C(=C/c2ccc(-c3cccc(C(F)(F)F)c3)cc2)SC1=S | 38 (≈ 75.2 µM) | 31.4 (≈ 62.1 µM) | 30.6 (≈ 60.5 µM) | < 22.1 | > 1.55 | 101 | 5 | > 1.55 | 5.76 | Stable | 6.46 | Stable | 96.5 | 80 | Dose-Dependent Effect | < 6.1 | inhibition [7]: 16.6%
3 | CCCC[C@@H](C(=O)O)N1C(=O)/C(=C/c2ccc(-c3ccc(F)c(C(F)(F)F)c3)cc2)SC1=S | 47.7 (≈ 95.9 µM) | 31.7 (≈ 63.7 µM) | 28.2 (≈ 56.7 µM) | < 22.1 | > 1.55 | 96.9 | 20 | > 1.55 | 4.95 | Stable | 6.32 | Stable | 106 | 101 | Dose-Dependent Effect | < 6.1 | inhibition [7]: 20.2%
4 | CCCC[C@@H](C(=O)O)N1C(=O)/C(=C/c2ccc(-c3cccc(C(F)(F)F)c3)cc2)SC1=S | 50.3 (≈ 105 µM) | 31.1 (≈ 64.9 µM) | 32.2 (≈ 67.1 µM) | < 22.1 | > 1.55 | 95.9 | 7 | > 1.55 | 5.38 | Stable | 6.19 | Stable | 104 | 101 | Dose-Dependent Effect | < 6.1 | Papp at 1.5 h, 3 µM [18]: 16.9 ×10⁻⁶ cm/s; pIC50 [19]: 5.39; Activity [20]: >95%; Activity [21]: >85%
5 | SODIUM ORTHOVANAD | – | – | – | – | – | – | – | – | – | – | – | – | – | – | – | – | inhibition [22]: 97.4%
6 | O=C1OC(c2ccccc2C(F)(F)F)C(c2ccc3ccccc3n2)=C1O (centres undefined) | – | – | – | – | – | – | – | – | – | – | – | – | – | – | – | – | pIC50 [23]: 4.51
7 | CCCC[C@@H](C(=O)O)N1C(=O)/C(=C/c2ccc(-c3cccc(Cl)c3)cc2)SC1=S | – | – | – | – | – | – | 5 | – | 5.73 | – | 6.42 | – | 102 | – | – | – | –
8 | Cc1onc(C(=O)O)c1-c1cccc(-c2cc(Cl)c(O)c(Cl)c2)c1 | – | – | – | – | – | – | – | – | – | – | – | – | – | – | – | – | pIC50 [23]: 5.53
9 | O=C(O)[C@H](C1CCCCC1)N1C(=O)/C(=C/c2ccc(-c3ccc(F)c(C(F)(F)F)c3)cc2)SC1=S | > 64 | 30.5 (≈ 58.3 µM) | 30.2 (≈ 57.7 µM) | < 22.1 | > 1.55 | 101 | – | > 1.55 | 5.27 | Stable | 6.31 | Stable | 101 | 101 | Dose-Dependent Effect | < 6.1 | inhibition [7]: 27.1%
10 | CCOC(=O)C1=C(C)Oc2nc(C)n(Cc3cn([C@@H]4O[C@H](COC(C)=O)[C@@H](OC(C)=O)[C@H](OC(C)=O)[C@H]4OC(C)=O)nn3)c(=O)c2C1c1cc(OC)c(OC)c(OC)c1 (some centres undefined) | – | – | – | – | – | – | – | – | – | – | – | – | – | – | – | – | pIC50 [23]: 5.81
11 | O=C1NC(=S)NC(=O)C1Cc1cc(Br)ccc1OCc1ccc(Cl)cc1 | – | > 32 | – | – | – | – | – | – | – | – | – | – | – | – | – | – | pIC50 [24]: 4.65
